Consider 35 compounds from patent US10227329B2, “Compounds useful for treating disorders related to RET” (BLUEPRINT MEDICINES CORPORATION, priority 2016, dated 2019).

Assay [1] deals with wild type RET (Homo sapiens (Human), UniProt P07949). Briefly: RET Wild Type Assay at KM (Caliper electrophoretic mobility shift). Format: biochemical. The note with it: 25 μM ATP (KM).
Assay [2] deals with RET V804L (Homo sapiens (Human), UniProt P07949, V804L). Briefly: RET V804L Gatekeeper Mutant Assay at KM (Caliper electrophoretic mobility shift). Format: biochemical. The note with it: 10 μM ATP (KM), read-out: V480L Mutant.
Chain of RET V804L (P07949 29-1114 V804L): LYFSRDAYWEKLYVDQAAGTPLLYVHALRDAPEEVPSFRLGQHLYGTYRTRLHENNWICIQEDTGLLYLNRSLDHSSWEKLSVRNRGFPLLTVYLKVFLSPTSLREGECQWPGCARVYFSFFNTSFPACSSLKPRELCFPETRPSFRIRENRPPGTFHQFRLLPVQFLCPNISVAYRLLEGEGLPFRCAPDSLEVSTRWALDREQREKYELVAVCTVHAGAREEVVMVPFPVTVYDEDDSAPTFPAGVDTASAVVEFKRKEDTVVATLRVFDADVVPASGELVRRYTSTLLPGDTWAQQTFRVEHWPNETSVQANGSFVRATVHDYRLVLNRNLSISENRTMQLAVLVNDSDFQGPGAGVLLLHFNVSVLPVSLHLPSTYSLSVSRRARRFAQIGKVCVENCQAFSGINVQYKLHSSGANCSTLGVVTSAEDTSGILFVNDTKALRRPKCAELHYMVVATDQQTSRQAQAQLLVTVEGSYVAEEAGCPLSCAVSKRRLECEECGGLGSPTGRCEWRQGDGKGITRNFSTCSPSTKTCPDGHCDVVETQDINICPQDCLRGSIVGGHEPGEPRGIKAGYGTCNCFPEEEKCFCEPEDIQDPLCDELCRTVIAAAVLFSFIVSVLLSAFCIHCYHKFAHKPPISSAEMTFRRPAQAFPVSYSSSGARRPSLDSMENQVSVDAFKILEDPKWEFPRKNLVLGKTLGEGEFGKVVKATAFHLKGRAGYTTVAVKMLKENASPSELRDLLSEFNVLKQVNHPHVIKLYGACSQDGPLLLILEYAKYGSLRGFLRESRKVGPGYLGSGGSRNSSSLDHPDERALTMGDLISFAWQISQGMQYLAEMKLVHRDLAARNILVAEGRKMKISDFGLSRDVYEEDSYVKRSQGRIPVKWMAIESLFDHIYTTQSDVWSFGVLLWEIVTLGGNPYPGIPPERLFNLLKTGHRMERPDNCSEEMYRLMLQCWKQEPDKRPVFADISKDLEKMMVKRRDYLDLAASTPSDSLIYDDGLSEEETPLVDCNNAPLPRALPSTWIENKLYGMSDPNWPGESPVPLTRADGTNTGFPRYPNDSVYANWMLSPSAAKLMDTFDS

Chain of wild type RET (P07949 29-1114): as the sequence (P07949 29-1114 V804L) above, with L776V counted along it

For the compound `Cc1cc(Nc2cc(C)[nH]n2)nc(N2CCC(C(=O)NCc3ccccc3)CC2)n1` [Compound 100], the IC50 is more than 100 nM in assay [1] and 10 to 100 nM in assay [2].

Turning to `Cc1cc(Nc2cc(C)[nH]n2)nc(N2CCC(C)(C(=O)NCc3ccccc3)CC2)n1` [Compound 101], the IC50 in assay [1] and in assay [2] was 10 to 100 nM throughout.

As for `Cc1cc(Nc2cc(C)[nH]n2)nc(N2CCC(O)(C(=O)NCc3ccccc3)CC2)c1` [Compound 102], the IC50 in assay [1] is more than 100 nM; in assay [2] it was 10 to 100 nM.

As to `Cc1cc(Nc2cc(C)[nH]n2)nc(N2CCC(O)(C(=O)NCc3ccccc3)CC2)n1` [Compound 103], the IC50 in assay [1] and in assay [2] was more than 100 nM throughout.

As to `COC1(C(=O)NCc2ccccc2)CCN(c2nc(C)cc(Nc3cc(C)[nH]n3)n2)CC1` [Compound 104], the IC50 in assay [1] was more than 100 nM; in assay [2] it was 10 to 100 nM.

Regarding `COc1ccc(CNC(=O)C2(O)CCN(c3cc(C)cc(Nc4cc(C)[nH]n4)n3)CC2)cc1` [Compound 105], the IC50 in assay [1] and in assay [2] was 10 to 100 nM throughout.

As for `COc1ccc(CNC(=O)C2(O)CCN(c3nc(C)cc(Nc4cc(C)[nH]n4)n3)CC2)cc1` [Compound 106], the IC50 in assay [1] was more than 100 nM; in assay [2] it was 10 to 100 nM.

As to `Cc1cc(Nc2cc(C)[nH]n2)nc(N2CC(C)(C(=O)NCc3ccc(-n4cccn4)nc3)C2)c1` [Compound 107, N-((6-(1H-pyrazol-1-yl)pyridin-3-yl)methyl)-3-methyl-1-(4-methyl-6-((5-methyl-1H-pyrazol-3-yl)amino)pyridin-2-yl)azetidine-3-carboxamide], the IC50 in assay [1] and in assay [2] was less than 10 nM in each case.

As to `Cc1cc(Nc2cc(C)[nH]n2)nc(N2CC(O)(C(=O)NCc3ccc(-n4cccn4)nc3)C2)c1` [Compound 110], the IC50 in assay [1] was 10 to 100 nM; in assay [2], less than 10 nM.

Turning to `Cc1cc(Nc2cc(C)[nH]n2)nc(N2CC(F)(C(=O)NCc3ccc(-n4cccn4)nc3)C2)c1` [Compound 111], the IC50 in assay [1] and in assay [2] was less than 10 nM each time.

In the case of `Cc1cc(Nc2cc(C)[nH]n2)nc(N2CC(F)(C(=O)NCc3ccc(-n4cccn4)nc3)C2)n1` [Compound 112], the IC50 in assay [1] and in assay [2] was less than 10 nM throughout.

Consider `CCOc1ccc(CNC(=O)C2(O)CCN(c3cc(C)cc(Nc4cc(C)[nH]n4)n3)CC2)cc1` [Compound 113], for which the IC50 in assay [1] is 10 to 100 nM; in assay [2], less than 10 nM.

Regarding `COc1ccc([C@H](C)NC(=O)C2(O)CCN(c3cc(C)cc(Nc4cc(C)[nH]n4)n3)CC2)cc1` [Compound 114], the IC50 in assay [1] and in assay [2] was 10 to 100 nM throughout.

Consider `CCOc1ccc(CNC(=O)C2(O)CCN(c3nc(C)cc(Nc4cc(C)[nH]n4)n3)CC2)cc1` [Compound 115], for which the IC50 in assay [1] and in assay [2] was 10 to 100 nM throughout.

For the compound `COc1ccc([C@H](C)NC(=O)C2(O)CCN(c3nc(C)cc(Nc4cc(C)[nH]n4)n3)CC2)cc1` [Compound 116], the IC50 was more than 100 nM in assay [1] and 10 to 100 nM in assay [2].

For `Cc1cc(Nc2cc(C)[nH]n2)nc(N2CC(C)(C(=O)N[C@@H](C)c3ccc(-n4cccn4)nc3)C2)c1` [Compound 117], the IC50 in assay [1] and in assay [2] was less than 10 nM throughout.

In the case of `Cc1cc(Nc2cc(C)[nH]n2)nc(N2CCC(C(=O)NCc3ccc(-n4cccn4)nc3)CC2)n1` [Compound 118], the IC50 in assay [1] and in assay [2] was less than 10 nM in each case.

For `Cc1cc(Nc2cc(C)[nH]n2)nc(N2CC(C(=O)N[C@@H](C)c3ccc(-n4cc(F)cn4)nc3)C2)c1` [Compound 119], the IC50 in assay [1] and in assay [2] was less than 10 nM each time.

Take `Cc1cc(Nc2cc(C)[nH]n2)nc(N2CC(C)(C(=O)NCc3ccc(-n4cc(F)cn4)nc3)C2)c1` [Compound 120]: the IC50 in assay [1] and in assay [2] was less than 10 nM throughout.

Turning to `Cc1cc(Nc2cc(C)[nH]n2)nc(N2CC(C(=O)N[C@@H](C)c3ccc(-n4cc(F)cn4)nc3)C2)n1` [Compound 121], the IC50 in assay [1] and in assay [2] was less than 10 nM throughout.

For the compound `Cc1cc(Nc2cc(C)[nH]n2)nc(N2CC(F)(C(=O)N[C@@H](C)c3ccc(-n4cccn4)nc3)C2)n1` [Compound 122], the IC50 in assay [1] and in assay [2] was less than 10 nM each time.

With `COc1ccc([C@H](C)NC(=O)C2(OC)CCN(c3nc(C)cc(Nc4cc(C)[nH]n4)n3)CC2)cc1` [Compound 123], the IC50 in assay [1] and in assay [2] was 10 to 100 nM throughout.

For the compound `Cc1cc(Nc2cc(C)[nH]n2)nc(N2CC(F)(C(=O)NCc3ccc(-n4cc(F)cn4)nc3)C2)n1` [Compound 124], the IC50 in assay [1] and in assay [2] was less than 10 nM throughout.

For `COC1(C(=O)NCc2ccc(N3CC(F)C3)nc2)CN(c2nc(C)cc(Nc3cc(C)[nH]n3)n2)C1` [Compound 125], the IC50 in assay [1] and in assay [2] was more than 100 nM in each case.

With `Cc1cc(Nc2cc(C)[nH]n2)nc(N2CC(C#N)(C(=O)N[C@@H](C)c3ccc(-n4cccn4)nc3)C2)n1` [Compound 126], the IC50 in assay [1] and in assay [2] was less than 10 nM throughout.

With `Cc1cc(Nc2cc(C)[nH]n2)nc(N2CCC(C)(C(=O)NCc3ccc(-n4cccn4)nc3)CC2)c1` [Compound 127], the IC50 in assay [1] and in assay [2] was less than 10 nM each time.

Consider `Cc1cc(Nc2cc(C)c(C#N)c(N3CC(F)(C(=O)NCc4ccc(-n5cccn5)nc4)C3)n2)n[nH]1` [Compound 128], for which the IC50 in assay [1] and in assay [2] was less than 10 nM each time.

Consider `Cc1cc(Nc2cc(C)[nH]n2)nc(N2CCC(C)(C(=O)NCc3ccc(-n4cccn4)nc3)CC2)n1` [Compound 129], for which the IC50 in assay [1] and in assay [2] was less than 10 nM throughout.

Take `CCC1(C(=O)N[C@@H](C)c2ccc(-n3cccn3)nc2)CN(c2nc(C)cc(Nc3cc(C)[nH]n3)n2)C1` [Compound 130]: the IC50 in assay [1] and in assay [2] was less than 10 nM throughout.

In the case of `Cc1cc(Nc2cc(C)[nH]n2)nc(N2CCC(O)(C(=O)NCc3ccc(-n4cccn4)nc3)CC2)c1` [Compound 131], the IC50 in assay [1] and in assay [2] was less than 10 nM each time.

On to `Cc1cc(Nc2cc(C)[nH]n2)nc(N2CC[C@H](C(=O)NCc3ccc(-n4cccn4)nc3)[C@@H](O)C2)c1` [Compound 132], for which the IC50 in assay [1] and in assay [2] was less than 10 nM throughout.

Consider `Cc1cc(Nc2cc(C)[nH]n2)nc(N2CC[C@@H](C(=O)NCc3ccc(-n4cccn4)nc3)[C@H](O)C2)c1` [Compound 133], for which the IC50 in assay [1] and in assay [2] was less than 10 nM throughout.

As for `Cc1cc(Nc2cc(C)[nH]n2)nc(N2CC[C@@H](C(=O)NCc3ccc(-n4cccn4)nc3)[C@@H](O)C2)c1` [Compound 134], the IC50 in assay [1] and in assay [2] was less than 10 nM throughout.

For the compound `Cc1cc(Nc2cc(C)[nH]n2)nc(N2CC[C@H](C(=O)NCc3ccc(-n4cccn4)nc3)[C@H](O)C2)c1` [Compound 135], the IC50 in assay [1] and in assay [2] was 10 to 100 nM throughout.

Consider `Cc1cc(Nc2cc(C)[nH]n2)nc(N2CCC(O)(C(=O)NCc3ccc(-n4cccn4)nc3)CC2)n1` [Compound 136, N-((6-(1H-pyrazol-1-yl)pyridin-3-yl)methyl)-4-hydroxy-1-(4-methyl-6-(3-methyl-1H-pyrazol-5-ylamino)pyrimidin-2-yl)piperidine-4-carboxamide], for which the IC50 in assay [1] and in assay [2] was less than 10 nM throughout.
